Source: patent US11549946B2, “Method for detecting cholangiocarcinoma cells” (National Tsing Hua University, priority 2019, dated 2023)

Experiments:
[1] = system: BxPC3 (pancreatic cancer); experiment: Capture test of cell lines by octasaccharide-coated magnetic beads (traditional shaker); format: cell-based; conditions: 30 mins
Excerpt: (§1) The cell lines utilized in this example were SNU478, HuCCT1, Huh28, KKU100, MMNK1, BxPC3, HepG2 and HCT8, SNU478, HuCCT1, Huh28, KKU100, and MMNK1 were supplied by Division of Surgery, National Cheng Kung University Hospital, Taiwan. BxPC3 and HepG2 were supplied by Dr. Kuang Hung Cheng, Institute of Biomedical Science, National Sun Yat-sen University, Taiwan. HCT8 was supplied by Professor Hwan-You Chang, Institute of Life Science, National Tsing Hua University, Taiwan. SNU478, HuCCT1, Huh28 and KKU100 were used as target cells for positive selection, which are CCA cell lines respectively derived from the ampulla of Vater, the intrahepatic-metastasized ascites, the intrahepatic bile duct and the opisthorchis viverrini-related hilar bile duct. For negative selection, MMNK1 (immortalized biliary epithelial), and various types of cancer cell lines, including BxPC3 (pancreatic cancer), HepG2 (liver cancer) and HCT8 (colorectal cancer) were used. Among these cell lines, SNU478, HuCCT1, Huh28, BxPC3 and HCT8 were identically cultured in Roswell Park Memorial Institute 1640 (RPMI 1640, Gibco®, Thermo Fisher Scientific, USA) containing 100 U/mL penicillin and 100 μg/mL streptomycin (Pen Strep, Gibco®, Thermo Fisher Scientific, USA), 10% fetal bovine serum (FBS, Gibco®, Thermo Fisher Scientific, USA). The growth medium for KKU100, MMNK-1 and HepG2 was Dulbecco's modified eagle medium (DMEM, Gibco®, Thermo Fisher Scientific, USA) complemented with the additives described above. All cells were cultured in a humidified incubator at 37° C. under an atmosphere containing 5% CO2.
(§2) In this example, the cells were captured by magnetic beads. The surface of magnetic beads was coated, respectively, with three concentrations of ten kinds of heparan sulfate (HS) octasaccharides, that is, from SCH-43 to SCH-52. The magnetic beads used in this example were Dynabeads® MyOne™ Streptavidin T1 (˜7-10×10^9 beads/mL, Ø=1 μm, Invitrogen, Thermo Fisher Scientific, USA). Briefly, each octasaccharide of 1 μM, 10 μM and 100 μM concentration were first incubated with magnetic beads in a volume/volume ratio of 1:10, and placed on the wheeling rotator (RM-2L INTELLI-mixer, ELMI Ltd., Latvia) at 25 rpm, C2 mode for 30 mins at room temperature. The beads were then collected using a magnetic particle concentrator (MPC, Dynabeads® MPC®-1, Life Technologies) for 2 mins, followed by discarding the supernatant and washing the coated beads three times with 1 mL of deionized (DI) water. Finally, the coated beads were suspended in the same volume of DI water as the initial volume of Dynabeads®.
(§3) In this example, the capture test for the eight cell lines mentioned above was performed with ten octasaccharides to determine their affinity. Therefore, by using the traditional shaker, 2×10^5 cells were incubated with three kinds of concentration (1 μM, 10 μM and 100 μM) of each octasaccharide for 30 mins. After the incubation, they were washed twice and the amount of captured cells was calculated by a hemocytometer under an inverted microscope. Through statistical analysis by ANOVA, the octasaccharides which bound to one cell line with high specificity was compared to other cell lines.

HCT8 (colorectal cancer) = experiment: as above; format: cell-based; conditions: 30 mins
Excerpt: as §1, §2, §3

HuCCT1 (CCA cell line) = experiment: as above; format: cell-based; conditions: 30 mins
Excerpt: as §1, §2, §3

KKU100 (CCA cell line) = experiment: as above; format: cell-based; conditions: 30 mins
Excerpt: as §1, §2, §3

[2] = system: MMNK1 (immortalized biliary epithelial); experiment: as above; format: cell-based; conditions: 30 mins
Excerpt: as §1, §2, §3

HepG2 (liver cancer) = experiment: as above; format: cell-based; conditions: 30 mins
Excerpt: as §1, §2, §3

SNU478 (CCA cell line) = experiment: as above; format: cell-based; conditions: 30 mins
Excerpt: as §1, §2, §3

white blood cells (WBCs) = experiment: On-bench capture test of WBCs using octasaccharide-coated beads; format: cell-based; conditions: WBCs versus CCA cells (Huh28)
Experimental: In order to determine whether SCH-45 and SCH-46 can be promising tools for use in clinical examination at an early stage or on the prognostic tracking of cancer, such as blood test, an on-bench capture test of WBCs using SCH-45 and SCH-46 of 100 μM-coated beads was performed in this example.
The whole blood used in this example was provided by National Cheng Kung University Hospital and stored at 4° C. (IRB number: A-ER-103-063 and A-ER-105-109). In order to achieve good efficiency in cancer cell capturing using octasaccharide-coated beads with the blood sample, whole blood was pretreated to remove blood cells, including red blood cells (RBCs) and white blood cells (WBCs). In other words, the whole blood pretreatment process contained a RBC lysis step and a WBC depletion step. […] Whole blood was inoculated with 10^5 Huh28 cells in a 1.5 mL Eppendorf tube. Then, on-bench RBC lysis was performed using a commercial RBC lysis buffer (Cat. 420301, BioLegend®, USA) diluted to 1× working concentration with DI water. The 100 μL of spiked sample was incubated with 1×RBC lysis buffer at a 1:10 volume/volume ratio on a wheeling rotor at 25 rpm, C2 mode for 5 mins, and then centrifuged at 1200 rpm for 5 mins to discard the supernatant. The pellets were washed twice and resuspended in 100 μL of 1× phosphate buffered saline (PBS) buffer. […]

Huh28 (CCA cell line) = experiment: Capture test of cell lines by octasaccharide-coated magnetic beads (traditional shaker); format: cell-based, human; conditions: 30 mins
Excerpt: The cell lines utilized in this example were SNU478, HuCCT1, Huh28, KKU100, MMNK1, BxPC3, HepG2 and HCT8, SNU478, HuCCT1, Huh28, KKU100, and MMNK1 were supplied by Division of Surgery, National Cheng Kung University Hospital, Taiwan. BxPC3 and HepG2 were supplied by Dr. Kuang Hung Cheng, Institute of Biomedical Science, National Sun Yat-sen University, Taiwan. HCT8 was supplied by Professor Hwan-You Chang, Institute of Life Science, National Tsing Hua University, Taiwan. SNU478, HuCCT1, Huh28 and KKU100 were used as target cells for positive selection, which are CCA cell lines respectively derived from the ampulla of Vater, the intrahepatic-metastasized ascites, the intrahepatic bile duct and the opisthorchis viverrini-related hilar bile duct. For negative selection, MMNK1 (immortalized biliary epithelial), and various types of cancer cell lines, including BxPC3 (pancreatic cancer), HepG2 (liver cancer) and HCT8 (colorectal cancer) were used. […]
In this example, the capture test for the eight cell lines mentioned above was performed with ten octasaccharides to determine their affinity. […] After the incubation, they were washed twice and the amount of captured cells was calculated by a hemocytometer under an inverted microscope. […]

[3] = beads coated with 1 μM octasaccharide
[4] = beads coated with 10 μM octasaccharide
[5] = beads coated with 100 μM octasaccharide

## O=C(CCCC[C@@H]1SC[C@@H]2NC(=O)N[C@@H]21)NCCCOCCOCCOCCOCCOCCOCCC(=O)NCCCCCO[C@@H]1O[C@H](C(=O)O)[C@@H](O[C@H]2O[C@H](COS(=O)(=O)O)[C@@H](O[C@@H]3O[C@@H](C(=O)O)[C@@H](O[C@H]4O[C@H](COS(=O)(=O)O)[C@@H](O[C@@H]5O[C@H](C(=O)O)[C@@H](O[C@H]6O[C@H](COS(=O)(=O)O)[C@@H](O[C@@H]7O[C@@H](C(=O)O)[C@@H](O[C@H]8O[C@H](COS(=O)(=O)O)[C@@H](O)[C@H](O)[C@H]8NS(=O)(=O)O)[C@H](O)[C@H]7OS(=O)(=O)O)[C@H](O)[C@H]6NS(=O)(=O)O)[C@H](O)[C@H]5OS(=O)(=O)O)[C@H](O)[C@H]4NS(=O)(=O)O)[C@H](O)[C@H]3OS(=O)(=O)O)[C@H](O)[C@H]2NS(=O)(=O)O)[C@H](O)[C@H]1OS(=O)(=O)O [SCH-45]
[1]; [3]
  capture rate: 16 ± 6%
[1]; [4]
  capture rate: 11 ± 3%
[1]; [5]
  capture rate: 7 ± 3%
HCT8 (colorectal cancer); [3]
  capture rate: 16 ± 3%
HCT8 (colorectal cancer); [4]
  capture rate: 13 ± 0%
HCT8 (colorectal cancer); [5]
  capture rate: 9 ± 2%
HuCCT1 (CCA cell line); [3]
  capture rate: 5 ± 1%
HuCCT1 (CCA cell line); [4]
  capture rate: 5 ± 2%
HuCCT1 (CCA cell line); [5]
  capture rate: 4 ± 2%
KKU100 (CCA cell line); [3]
  capture rate: 42 ± 3%
KKU100 (CCA cell line); [4]
  capture rate: 44 ± 2%
KKU100 (CCA cell line); [5]
  capture rate: 41 ± 11%
[2]; [3]
  capture rate: 55 ± 7%
[2]; [4]
  capture rate: 47 ± 20%
[2]; [5]
  capture rate: 16±8%
HepG2 (liver cancer); [3]
  capture rate: 14 ± 1%
HepG2 (liver cancer); [4]
  capture rate: 11 ± 4%
HepG2 (liver cancer); [5]
  capture rate: 9 ± 6%
SNU478 (CCA cell line); [3]
  capture rate: 20 ± 5%
SNU478 (CCA cell line); [4]
  capture rate: 17 ± 7%
SNU478 (CCA cell line); [5]
  capture rate: 16 ± 8%
White blood cells (WBCs)
  ratio of WBC capture rate to CCA: 5×10^−5
Huh28 (CCA cell line); [3]
  capture rate: 66 ± 6%
Huh28 (CCA cell line); [4]
  capture rate: 67 ± 3%
